Laboratory results: ChEMBL document CHEMBL4196183, “Discovery of New Allosteric Modulators of the Urotensinergic System through Substitution of the Urotensin II-Related Peptide (URP) Phenylalanine Residue” (J Med Chem, 2018)

Legend:
[1] = target: T1, Urotensin-2 receptor (Rattus norvegicus) (UniProt P49684); assay: (§1) Antagonist activity at UT receptor in Sprague-Dawley rat thoracic aortic ring assessed as reduction in URP-induced contraction by measuring Emax for […] at 1 uM pre-incubated for 30 mins […] relative to KCl-induced contraction (reference value: 107 +/- 3%); assay type: functional
T1 sequence (whole entry): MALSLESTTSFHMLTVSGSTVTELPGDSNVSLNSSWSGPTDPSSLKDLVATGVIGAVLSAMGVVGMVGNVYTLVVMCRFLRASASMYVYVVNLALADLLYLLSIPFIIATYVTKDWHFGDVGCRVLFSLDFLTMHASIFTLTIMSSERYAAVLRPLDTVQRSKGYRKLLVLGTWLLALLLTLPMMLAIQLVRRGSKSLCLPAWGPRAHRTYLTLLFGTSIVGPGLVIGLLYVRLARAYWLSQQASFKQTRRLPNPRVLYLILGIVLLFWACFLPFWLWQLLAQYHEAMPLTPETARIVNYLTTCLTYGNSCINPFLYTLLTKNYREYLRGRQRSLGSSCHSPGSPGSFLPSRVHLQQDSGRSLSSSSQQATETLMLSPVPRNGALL

[2] = target: T1, Urotensin-2 receptor (Rattus norvegicus); assay: as §1, with “urotensin-2-induced” for “URP-induced”, “101” for “107”, “4%)” for “3%)”; assay type: functional
[3] = target: T2, Urotensin-2 receptor (Homo sapiens) (UniProt Q9UKP6); assay: (§2) Bias factor, ratio of deltalog(Tau/KA) for agonist activity at human UT receptor expressed in HEK293 cells co-expressing Gq-polycistronic BRET biosensor assessed as induction of Gq activation by luminescence detection based BRET assay to deltalog(Tau/KA) for agonist activity at human UT receptor expressed in HEK293 cells co-expressing G12-polycistronic BRET biosensor assessed as induction of G12 activation by luminescence detection based BRET assay; assay type: functional, cell-based
T2 sequence (whole entry): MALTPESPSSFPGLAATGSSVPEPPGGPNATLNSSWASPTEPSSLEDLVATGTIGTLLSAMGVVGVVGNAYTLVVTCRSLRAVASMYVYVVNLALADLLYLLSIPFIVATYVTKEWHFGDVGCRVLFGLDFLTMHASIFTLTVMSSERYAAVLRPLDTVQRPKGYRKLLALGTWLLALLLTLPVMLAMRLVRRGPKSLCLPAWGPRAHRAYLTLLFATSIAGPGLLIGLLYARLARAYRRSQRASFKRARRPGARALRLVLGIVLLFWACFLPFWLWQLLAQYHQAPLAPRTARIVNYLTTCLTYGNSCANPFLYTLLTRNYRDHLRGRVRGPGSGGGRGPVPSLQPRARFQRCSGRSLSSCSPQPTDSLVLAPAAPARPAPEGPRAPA

[4] = target: T2, Urotensin-2 receptor (Homo sapiens); assay: as §2, with “beta-arrestin1-polycistronic” for “G12-polycistronic”, “beta-arrestin1 recruitment” for “G12 activation”; assay type: functional, cell-based
[5] = target: T2, Urotensin-2 receptor (Homo sapiens); assay: as §2, with “Selectivity index, change in” for “Bias factor, ratio of”, “beta-arrestin1-polycistronic” for “G12-polycistronic”, “beta-arrestin1 recruitment” for “G12 activation”; assay type: functional, cell-based
[6] = target: T2, Urotensin-2 receptor (Homo sapiens); assay: Agonist activity at human UT receptor expressed in HEK293 cells co-expressing beta-arrestin1-polycistronic BRET biosensor assessed as induction of beta-arrestin1 recruitment measured for 5 mins by luminescence detection based BRET assay relative to 10 uM URP; assay type: functional, cell-based
[7] = target: T2, Urotensin-2 receptor (Homo sapiens); assay: Agonist activity at human UT receptor expressed in HEK293 cells co-expressing Gq-polycistronic BRET biosensor assessed as induction of Gq activation measured for 5 mins by luminescence detection based BRET assay relative to 10 uM URP; assay type: functional, cell-based
[8] = target: T2, Urotensin-2 receptor (Homo sapiens); assay: Bias factor, ratio of deltalog(Tau/KA) for agonist activity at human UT receptor expressed in HEK293 cells co-expressing beta-arrestin1-polycistronic BRET biosensor assessed as induction of beta-arrestin1 recruitment by luminescence detection based BRET assay to deltalog(Tau/KA) for agonist activity at human UT receptor expressed in HEK293 cells co-expressing Gq-polycistronic BRET biosensor assessed as induction of Gq activation by luminescence detection based BRET assay; assay type: functional, cell-based
[9] = target: T2, Urotensin-2 receptor (Homo sapiens); assay: Selectivity index, change in deltalog(Tau/KA) for agonist activity at human UT receptor expressed in HEK293 cells co-expressing G12-polycistronic BRET biosensor assessed as induction of G12 activation by luminescence detection based BRET assay to deltalog(Tau/KA) for agonist activity at human UT receptor expressed in HEK293 cells co-expressing Gq-polycistronic BRET biosensor assessed as induction of Gq activation by luminescence detection based BRET assay; assay type: functional, cell-based
[10] = target: T2, Urotensin-2 receptor (Homo sapiens); assay: Bias factor, ratio of deltalog(Tau/KA) for agonist activity at human UT receptor expressed in HEK293 cells co-expressing G12-polycistronic BRET biosensor assessed as induction of G12 activation by luminescence detection based BRET assay to deltalog(Tau/KA) for agonist activity at human UT receptor expressed in HEK293 cells co-expressing beta-arrestin1-polycistronic BRET biosensor assessed as induction of beta-arrestin1 recruitment by luminescence detection based BRET assay; assay type: functional, cell-based
[11] = target: T2, Urotensin-2 receptor (Homo sapiens); assay: Agonist activity at human UT receptor expressed in HEK293 cells co-expressing G12-polycistronic BRET biosensor assessed as induction of G12 activation measured for 5 mins by luminescence detection based BRET assay relative to 10 uM URP; assay type: functional, cell-based
[12] = target: T2, Urotensin-2 receptor (Homo sapiens); assay: Selectivity index, change in deltalog(Tau/KA) for agonist activity at human UT receptor expressed in HEK293 cells co-expressing beta-arrestin1-polycistronic BRET biosensor assessed as induction of beta-arrestin1 recruitment by luminescence detection based BRET assay to deltalog(Tau/KA) for agonist activity at human UT receptor expressed in HEK293 cells co-expressing G12-polycistronic BRET biosensor assessed as induction of G12 activation by luminescence detection based BRET assay to; assay type: functional, cell-based
[13] = target: T1, Urotensin-2 receptor (Rattus norvegicus); assay: Agonist activity at UT receptor in Sprague-Dawley rat thoracic aortic ring assessed as induction of contraction relative to KCl-induced contraction; assay type: functional
[14] = target: T2, Urotensin-2 receptor (Homo sapiens); assay: Bias factor, ratio of deltalog(Tau/KA) for agonist activity at human UT receptor expressed in HEK293 cells co-expressing beta-arrestin1-polycistronic BRET biosensor assessed as induction of beta-arrestin1 recruitment by luminescence detection based BRET assay to deltalog(Tau/KA) for agonist activity at human UT receptor expressed in HEK293 cells co-expressing G12-polycistronic BRET biosensor assessed as induction of G12 activation by luminescence detection based BRET assay; assay type: functional, cell-based
[15] = target: T2, Urotensin-2 receptor (Homo sapiens); assay: Bias factor, ratio of deltalog(Tau/KA) for agonist activity at human UT receptor expressed in HEK293 cells co-expressing G12-polycistronic BRET biosensor assessed as induction of G12 activation by luminescence detection based BRET assay to deltalog(Tau/KA) for agonist activity at human UT receptor expressed in HEK293 cells co-expressing Gq-polycistronic BRET biosensor assessed as induction of Gq activation by luminescence detection based BRET assay; assay type: functional, cell-based
Urotensin-2 receptor [16] = target: T3, Urotensin-2 receptor (Homo sapiens, UniProt Q9UKP6); assay: Agonist activity at human UT receptor expressed in HEK293 cells co-expressing beta-arrestin1-polycistronic BRET biosensor assessed as induction of beta-arrestin1 recruitment measured for 5 mins by luminescence detection based BRET assay; assay type: functional, cell-based
T3 sequence (Q9UKP6 whole entry): T2 sequence (whole entry)

Urotensin-2 receptor [17] = target: T3, Urotensin-2 receptor; assay: Agonist activity at human UT receptor expressed in HEK293 cells co-expressing Gq-polycistronic BRET biosensor assessed as induction of Gq activation measured for 5 mins by luminescence detection based BRET assay; assay type: functional, cell-based
Urotensin-2 receptor [18] = target: T3, Urotensin-2 receptor; assay: Displacement of [Na125I]-synthetic URP from human UT receptor expressed in HEK293 cell membranes incubated for 2 hrs by gamma-counting
Urotensin-2 receptor [19] = target: T4, Urotensin-2 receptor (Rattus norvegicus, UniProt P49684); assay: Agonist activity at UT receptor in Sprague-Dawley rat thoracic aortic ring assessed as induction of contraction; assay type: functional
T4 sequence (P49684 whole entry): T1 sequence (whole entry)

Urotensin-2 receptor [20] = target: T3, Urotensin-2 receptor; assay: Agonist activity at human UT receptor expressed in HEK293 cells co-expressing G12-polycistronic BRET biosensor assessed as induction of G12 activation measured for 5 mins by luminescence detection based BRET assay; assay type: functional, cell-based

## CC(C)[C@H](NC(=O)[C@@H]1CSSC[C@H](NC(=O)[C@@H](C)N)C(=O)N[C@@H](Cc2ccc(I)cc2)C(=O)N[C@@H](Cc2c[nH]c3ccccc23)C(=O)N[C@@H](CCCCN)C(=O)N[C@@H](Cc2ccc(O)cc2)C(=O)N1)C(=O)O
[1]
  Emax: 100%
[2]
  Emax: 52%
[3]
  fold change (FC): 0.1
[4]
  fold change (FC): 0.1
[5]
  selectivity index, deltadeltalog(Tau/KA): -0.94
[6]
  Emax: 99%
[7]
  Emax: 87%
[8]
  fold change (FC): 8.6
[9]
  deltalog(Tau/KA): 0.89
[10]
  fold change (FC): 0.9
[11]
  Emax: 68%
[12]
  deltadeltalog(Tau/KA) (beta-arrestin1 selectivity index): 0.04
[13]
  Emax: 20%
[14]
  fold change (FC): 1.1
[15]
  fold change (FC): 7.8

## CC(C)[C@H](NC(=O)[C@@H]1CSSC[C@H](NC(=O)[C@H](C)N)C(=O)N[C@H](Cc2ccc(-c3ccccc3)cc2)C(=O)N[C@@H](Cc2c[nH]c3ccccc23)C(=O)N[C@@H](CCCCN)C(=O)N[C@@H](Cc2ccc(O)cc2)C(=O)N1)C(=O)O
Urotensin-2 receptor [16]
  EC50: 1.15 µM
Urotensin-2 receptor [17]
  EC50: 3.55 µM
Urotensin-2 receptor [18]
  IC50: > 1 µM
Urotensin-2 receptor [19]
  EC50: 0.00191 µM
Urotensin-2 receptor [20]
  EC50: 0.661 µM

## CC(C)[C@H](NC(=O)[C@@H]1CSSC[C@H](NC(=O)[C@@H](C)N)C(=O)N[C@@H](Cc2ccc(C#Cc3ccccc3)cc2)C(=O)N[C@@H](Cc2c[nH]c3ccccc23)C(=O)N[C@@H](CCCCN)C(=O)N[C@@H](Cc2ccc(O)cc2)C(=O)N1)C(=O)O
[1]
  Emax: 104%
[2]
  Emax: 100%
[3]
  fold change (FC): 0.1
[4]
  fold change (FC): 0.5
[5]
  selectivity index, deltadeltalog(Tau/KA): -0.34
[6]
  Emax: 36%
[7]
  Emax: 101%
[8]
  fold change (FC): 2.2
[9]
  deltalog(Tau/KA): 1.08
[10]
  fold change (FC): 5.6
[11]
  Emax: 72%
[12]
  deltadeltalog(Tau/KA) (beta-arrestin1 selectivity index): -0.75
[13]
  Emax: 8%
[14]
  fold change (FC): 0.2
[15]
  fold change (FC): 12.1

## CC(C)[C@H](NC(=O)[C@@H]1CSSC[C@H](NC(=O)[C@@H](N)CC(=O)O)C(=O)N[C@@H](Cc2ccc(I)cc2)C(=O)N[C@@H](Cc2c[nH]c3ccccc23)C(=O)N[C@@H](CCCCN)C(=O)N[C@@H](Cc2ccc(O)cc2)C(=O)N1)C(=O)O
Urotensin-2 receptor [16]
  EC50: 0.191 µM
Urotensin-2 receptor [17]
  EC50: 0.00708 µM
[3]
  fold change (FC): 0.6
[4]
  fold change (FC): 0.8
[5]
  selectivity index, deltadeltalog(Tau/KA): -0.1
[6]
  Emax: 104%
[7]
  Emax: 100%
Urotensin-2 receptor [18]
  IC50: 0.00398 µM
[8]
  fold change (FC): 1.2
[9]
  deltalog(Tau/KA): 0.22
[10]
  fold change (FC): 1.3
Urotensin-2 receptor [19]
  EC50: 0.0105 µM
[11]
  Emax: 94%
[12]
  deltadeltalog(Tau/KA) (beta-arrestin1 selectivity index): -0.13
Urotensin-2 receptor [20]
  EC50: 0.0363 µM
[13]
  Emax: 112%
[14]
  fold change (FC): 0.8
[15]
  fold change (FC): 1.7

## CC(C)[C@H](NC(=O)[C@@H]1CSSC[C@H](NC(=O)[C@@H](C)N)C(=O)N[C@@H](Cc2ccc(-c3ccccc3)cc2)C(=O)N[C@@H](Cc2c[nH]c3ccccc23)C(=O)N[C@@H](CCCCN)C(=O)N[C@@H](Cc2ccc(O)cc2)C(=O)N1)C(=O)O
[1]
  Emax: 91%
[2]
  Emax: 95%
[3]
  fold change (FC): 0
[4]
  fold change (FC): 0.1
[5]
  selectivity index, deltadeltalog(Tau/KA): -1.16
[6]
  Emax: 60%
[7]
  Emax: 102%
[8]
  fold change (FC): 14.4
[9]
  deltalog(Tau/KA): 1.7
[10]
  fold change (FC): 3.5
[11]
  Emax: 74%
[12]
  deltadeltalog(Tau/KA) (beta-arrestin1 selectivity index): -0.54
[13]
  Emax: 10%
[14]
  fold change (FC): 0.3
[15]
  fold change (FC): 50
